Data on eleven molecules can be found in patent publication US6458549B2, “Methods of diagnosing renal salt wasting syndrome and Alzheimer's disease and methods of treating the same” (Winthrop-University Hospital, priority 1998, dated 2002).

“Also recorded” adds a separate entry of the source.

Assay [1] has as its system human kidney proximal tubule cells. Briefly: Apoptosis of human kidney proximal tubule cells in culture. Format: cell-based. As to the method: (§1) Apoptosis Assay (TUNEL): Nuclear DNA fragmentation consistent with apoptosis was determined by the method of TdT-mediated dUTP-biotin nick-end labeling (TUNEL) (Y. Gavrieli et al., J. Cell. Biol. 119:493-501, 1992). The ApopDetek cell death assay kit (Enzo, Farmingdale, N.Y.) was used utilizing terminal deoxynucleotide transferase to incorporate Bio-16-dUTP onto the 3′-OH termini in the DNA of apoptotic cells, subsequent binding with streptavidin-horseradish peroxidase, and visualization after conversion of the substrate and chromagen (hydrogen peroxide and aminoethylcarbazole) into a localized brick red precipitate. A blue counter stain was also used. Slides were then observed for morphologically irregular and condensed nuclei which contain dark red precipitate to indicate TUNEL-positive cells using a Nikon (Nikon, Inc., Melville, N.Y.) Optiphot microscope. Five to six random field totaling approximately 1,000 to 1,500 cells were counted per slide. Apoptotic index (AI), defined as the percent of cells undergoing apoptosis, is calculated by dividing the number of positive nuclei by the total number of nuclei counted multiplied by 100.

In another assay the test system is LLC-PK1 cells. Briefly: TUNEL apoptosis assay (apoptotic index) in cultured LLC-PK1 cells. Type of assay: cell-based, pig. The note with it: for Apoptotic activity (in words): substance alone; for AI: 2 h. On the procedure:
Cell Culture and Assay Protocol. LLC-PK1, a pig kidney epithelial cell line was plated at a density of 10^3 cells per well into eight-well Permanox plastic chamber slides (NUNC, Naperville, Ill.). The cells were cultured at 37° C. in 5% CO2 in humidified incubators and grown for 3 days to 70-80% confluency in DMEM-F12 that was supplemented with 10% fetal calf serum, 7.5% sodium bicarbonate, 15 mM HEPES, 200 mM L-Glutamate, 100 u penicillin and 0.1 ug/ml streptomycin (Life Technologies, Gaithersburg, Md.). The culture fluid was then removed and cells were exposed to plasma from control individuals, Alzheimer's disease patients or multi-infarct dementia patients diluted 1:5 in fresh DMEM-F12 media, supplemented as above, for 2 h at 37° C. The cells were then rinsed in PBS, and fixed in 4% formaldehyde in PBS for 10 min., permeabilized with 0.5% Triton X-100 (Sigma Chemical CO., St. Louis, Mo.) for 5 min. and washed in 4 changes of distilled water. A positive control was obtained by exposing cells to 0.6 mM H2O2 diluted in DMEM-F12 for 2 h.
as §1, with “100. […]” for “100.”
Effect of Protein Synthesis on Apoptotic Activity. LLC-PK1 cells were exposed to Alzheimer's disease and control plasma in the absence and presence of cycloheximide (0.2-200 uM) (Sigma, St. Louis, Mo.). Apoptotic index was measured in these cells by TUNEL assay.
Effect of Calcium Depletion on Factor Activity. The TUNEL assay was performed in the usual manner except for substituting DMEM-F12 with calcium-free DMEM, supplemented with dialyzed 10% fetal calf serum (Life Technologies, Grand Island, N.Y.) and 0.6 mM EGTA to chelate calcium. Dialyzed Alzheimer's disease and control plasma were then added to the calcium-free media for 2 h at 37° C. and a TUNEL assay performed.
Contribution of Known Apoptotic Inducers. To test the possibility that the apoptotic factor in Alzheimer's disease plasma was β amyloid, TNF-α or myeloma light chain, the TUNEL assay was repeated as above after a 2 h incubation at 37° C. with […] β amyloid (Peninsula Laboratories, Inc., Belmont, Calif.), 5 pM-3 nM TNF-α (Quantikine, Minneapolis, Minn.) and 3-60 ug λ myeloma light chain, kindly supplied by Dr. Vecihi Batuman, Tulane University School of Medicine, New Orleans, La. To eliminate the possibility that a protease in Alzheimer's disease plasma is responsible for the apoptotic activity, the effect of a broad spectrum protease inhibitor cocktail (Boehringer Mannheim) was studied on apoptotic index using the TUNEL assay. LCC-PK1 cells were incubated with Alzheimer's disease plasma with and without the inhibitor cocktail and assayed as detailed above. This cocktail inhibits a large spectrum of serine, cysteine, and metalloproteases as well as calpains. It consists of aprotinin, leupeptin, EDTA, and pefabloc.

As for `CCCCC[C@H](O)C/C=C1/C(=O)C=C[C@@H]1C/C=C\CCCC(=O)O` [-Δ^12Prostaglandin J2], the “Effect on apoptosis (in words)” value in assay [1] (addition of Δ12Prostaglandin J2 to Indomethacin) is recorded as “increased apoptosis”; in assay [1] (combination of Indomethacin, Prostaglandin D2 Synthase and Δ12Prostaglandin J2), “increased apoptosis”; in assay [1] (substance alone), “induces apoptosis; also recorded: increased apoptosis to the same degree as prostaglandin D2 synthase”; in assay [1] (substance alone, listed as -Δ^12prostaglandin J2), “induces apoptosis”. Further, the “Apoptotic activity (in words)” value in the assay on LLC-PK1 cells is given as “increases the rate of apoptosis”.

For the molecule `C[C@@H]1C[C@@H]([C@H](O)CC2CC(=O)NC(=O)C2)C(=O)[C@@H](C)C1` [Cycloheximide, cycloheximide], the “Effect on apoptosis by Alzheimer's disease plasma (in words)” value is “inhibition of apoptosis” in the assay with LLC-PK1 cells (200 uM cycloheximide) and “no inhibition of apoptosis” in the assay with LLC-PK1 cells (lower concentrations of cycloheximide). Further, the “AI (%)” value amounted to 7.7 ± 1.6% in the assay on LLC-PK1 cells (cycloheximide 200 uM, cells exposed to Alzheimer's plasma); 6.3 ± 1.5% in the assay on LLC-PK1 cells (cycloheximide 200 uM, cells exposed to control plasma); 28.7 ± 4.0% in the assay with LLC-PK1 cells (cycloheximide 0.2-20 uM, cells exposed to Alzheimer's plasma); 5.0 ± 0.0% in the assay with LLC-PK1 cells (cycloheximide 0.2-20 uM, cells exposed to control plasma).

For the molecule `COc1ccc2c(c1)c(CC(=O)O)c(C)n2C(=O)c1ccc(Cl)cc1` [Indomethacin], the “Effect on apoptosis (in words)” value in assay [1] (simultaneous addition of Indomethacin and Prostaglandin D2 Synthase) is recorded as “did not increase apoptosis above baseline”; in assay [1] (substance alone), “inhibited apoptosis to baseline”.

With `CCN1C(=O)C=CC1=O` [N-Ethyl Maleimide], the “Effect on apoptosis (in words)” value in assay [1] (deactivation/inhibition of Prostaglandin D2 Synthase by N-Ethyl Maleimide) was “inhibited apoptosis”.

With `CCCCC[C@H](O)/C=C/[C@H]1C(=O)C[C@H](O)[C@@H]1C/C=C\CCCC(=O)O` [Prostaglandin D, prostaglandin D2], in assay [1] (substance alone), the “Effect on apoptosis (in words)” value was “did not increase apoptosis”.

As for `CCCCC[C@H](O)/C=C/[C@@H]1[C@@H](C/C=C\CCCC(=O)O)[C@@H]2C[C@H]1OO2` [Prostaglandin H, prostaglandin H2], the “Effect on apoptosis (in words)” value in assay [1] (substance alone) is “did not increase apoptosis”.

As for Prostaglandins E [Prostaglandin E], the “Effect on apoptosis (in words)” value in assay [1] (substance alone) is “did not increase apoptosis”.

TNF-α: the AI in the assay with LLC-PK1 cells (doses as high as 50 pM) amounted to 6%.

In the case of β-amyloid, the AI in the assay with LLC-PK1 cells (50 uM in media) worked out at 6.1±3.1%. Besides, the “Apoptotic activity (in words)” value in the assay with LLC-PK1 cells was “No detectable apoptotic activity”.

B1: Prostaglandin D2 Synthase: enzyme that converts prostaglandin H2 to prostaglandin D2; identified apoptotic factor (protein, UniProt P41222 23-190, looked up)
Prostaglandin-H2 D-isomerase: APEAQVSVQPNFQQDKFLGRWFSAGLASNSSWLREKKAALSMCKSVVAPATDGGLNLTSTFLRKNQCETRTMLLQPAGSLGSYSYRSPHWGSTYSVSVVETDYDQYALLYSQGSKGPGEDFRMATLYSRTQTPRAELKEKFTAFCKAQGFTEDTIVFLPQTDKCMTEQ
Turning to B1, in assay [1] (substance alone), the “Effect on apoptosis (in words)” value is reported as “increased apoptosis” and the “Increase of apoptosis above control” value is “about four times above control”.

B2: α1 microglobulin: protein co-found in the 32 Kd band from urine of a renal salt wasting patient (protein, UniProt P02760 20-203, looked up)
Alpha-1-microglobulin: GPVPTPPDNIQVQENFNISRIYGKWYNLAIGSTCPWLKKIMDRMTVSTLVLGEGATEAEISMTSTRWRKGVCEETSGAYEKTDTDGKFLYHKSKWNITMESYVVHTNYDEYAIFLTKKFSRHHGPTITAKLYGRAPQLRETLLQDFRVVAQGVGIPEDSIFTMADRGECVPGEQEPEPILIPRV
modifications: Alpha-1-microglobulin
notes: protein co-found in the 32 Kd band from urine of a renal salt wasting patient
As for B2, the “Apoptotic activity (in words)” value in the assay with LLC-PK1 cells is listed as “no apoptotic activity”.
